Measured values: US10968227B2, “Isoquinoline ether compounds as mGluR4 allosteric potentiators, compositions, and methods of treating neurological dysfunction” (Vanderbilt University, priority 2016, dated 2021)
Converted amounts (≈) assume the structure as drawn.

Key:
[1] = Rat brain fraction unbound; type: in vitro ADME; conditions: read-out: Rat Fu Brain
Brain-plasma partition = type: in vivo; conditions: rat; for unbound brain-to-plasma partition coefficient (Kp,uu): unbound brain-plasma ratio, read-out: Brain-Plasma Kp,ω
Kinetic solubility = type: physicochemical; conditions: kinetic from dmso stock
[2] = Human plasma fraction unbound; type: in vitro ADME; conditions: read-out: Human Fu Plasma
[3] = Rat plasma fraction unbound; type: in vitro ADME; conditions: read-out: Rat Fu Plasma
1A2 = 1A2 (Homo sapiens (Human), UniProt P05177); assay: CYP 1A2 inhibition; type: in vitro ADME
Chain of 1A2 (P05177 whole entry): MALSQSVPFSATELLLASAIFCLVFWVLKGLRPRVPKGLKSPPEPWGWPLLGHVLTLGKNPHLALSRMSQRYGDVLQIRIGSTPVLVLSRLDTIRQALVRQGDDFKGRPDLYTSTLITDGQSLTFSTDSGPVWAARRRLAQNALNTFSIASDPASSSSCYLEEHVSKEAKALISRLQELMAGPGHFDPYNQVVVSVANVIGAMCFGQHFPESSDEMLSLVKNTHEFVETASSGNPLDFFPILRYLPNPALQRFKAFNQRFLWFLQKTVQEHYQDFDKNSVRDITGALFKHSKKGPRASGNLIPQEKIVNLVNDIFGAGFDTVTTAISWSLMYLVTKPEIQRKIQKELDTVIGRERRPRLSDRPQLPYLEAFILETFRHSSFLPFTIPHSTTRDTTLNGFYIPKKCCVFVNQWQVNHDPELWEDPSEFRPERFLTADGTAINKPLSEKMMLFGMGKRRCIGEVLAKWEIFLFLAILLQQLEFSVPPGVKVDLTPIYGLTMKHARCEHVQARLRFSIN

2C9 = 2C9 (Homo sapiens (Human), UniProt P11712); assay: CYP 2C9 inhibition; type: in vitro ADME
Chain of 2C9 (P11712 whole entry): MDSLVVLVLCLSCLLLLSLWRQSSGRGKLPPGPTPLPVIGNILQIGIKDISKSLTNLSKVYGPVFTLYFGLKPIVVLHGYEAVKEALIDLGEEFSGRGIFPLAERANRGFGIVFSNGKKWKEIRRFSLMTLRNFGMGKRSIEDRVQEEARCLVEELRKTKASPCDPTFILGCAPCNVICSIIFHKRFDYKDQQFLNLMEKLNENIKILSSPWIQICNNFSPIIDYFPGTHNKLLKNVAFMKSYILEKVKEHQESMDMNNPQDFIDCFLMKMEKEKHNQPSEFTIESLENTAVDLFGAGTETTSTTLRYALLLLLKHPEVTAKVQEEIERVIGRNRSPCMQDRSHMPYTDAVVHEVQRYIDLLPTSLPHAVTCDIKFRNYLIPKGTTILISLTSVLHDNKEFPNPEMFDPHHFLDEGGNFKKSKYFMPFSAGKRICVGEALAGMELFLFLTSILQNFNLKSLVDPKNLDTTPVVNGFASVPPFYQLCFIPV

2D6 = 2D6 (Homo sapiens (Human), UniProt P10635); assay: CYP 2D6 inhibition; type: in vitro ADME
Chain of 2D6 (P10635 whole entry): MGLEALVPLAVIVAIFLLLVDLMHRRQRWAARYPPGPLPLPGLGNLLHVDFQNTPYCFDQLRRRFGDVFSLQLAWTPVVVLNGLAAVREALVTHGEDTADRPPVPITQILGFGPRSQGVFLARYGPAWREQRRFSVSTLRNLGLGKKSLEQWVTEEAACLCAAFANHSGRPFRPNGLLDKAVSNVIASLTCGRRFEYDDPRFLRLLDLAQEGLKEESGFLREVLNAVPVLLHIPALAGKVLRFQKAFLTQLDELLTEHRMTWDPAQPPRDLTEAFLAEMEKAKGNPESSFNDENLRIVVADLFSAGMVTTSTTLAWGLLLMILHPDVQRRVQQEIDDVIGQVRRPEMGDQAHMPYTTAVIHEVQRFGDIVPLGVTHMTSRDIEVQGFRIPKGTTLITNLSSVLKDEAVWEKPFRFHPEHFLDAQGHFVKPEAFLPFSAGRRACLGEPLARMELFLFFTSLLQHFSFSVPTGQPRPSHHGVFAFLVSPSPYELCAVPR

[4] = Human intrinsic and hepatic clearance; type: in vitro ADME
[5] = Rat intrinsic and hepatic clearance; type: in vitro ADME
3A4 = 3A4 (Homo sapiens (Human), UniProt P08684); assay: CYP 3A4 inhibition; type: in vitro ADME
Chain of 3A4 (P08684 whole entry): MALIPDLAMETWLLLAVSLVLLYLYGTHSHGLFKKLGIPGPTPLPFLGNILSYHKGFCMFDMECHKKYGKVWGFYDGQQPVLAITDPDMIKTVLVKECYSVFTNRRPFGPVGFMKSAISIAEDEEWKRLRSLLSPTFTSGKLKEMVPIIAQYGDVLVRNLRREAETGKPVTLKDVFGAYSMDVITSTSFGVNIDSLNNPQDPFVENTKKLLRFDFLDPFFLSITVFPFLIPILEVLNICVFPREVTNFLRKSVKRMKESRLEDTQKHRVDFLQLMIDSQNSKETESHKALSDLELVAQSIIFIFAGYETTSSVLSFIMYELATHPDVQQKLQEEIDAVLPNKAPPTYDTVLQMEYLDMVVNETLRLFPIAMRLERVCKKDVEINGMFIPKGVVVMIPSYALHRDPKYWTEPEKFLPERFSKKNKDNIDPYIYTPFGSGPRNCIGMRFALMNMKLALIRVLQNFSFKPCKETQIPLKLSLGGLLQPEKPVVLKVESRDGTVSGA

| Structure (SMILES) | fraction unbound [1] | Kp (Brain-plasma partition) | unbound brain-to-plasma partition coefficient (Kp,uu) (Brain-plasma partition) | solubility kinetic (Kinetic solubility) | fraction unbound [2] | fraction unbound [3] | IC50 (1A2) | IC50 (2C9) | IC50 (2D6) | CLint scaled [4] | Human CLhep [4] | CLint scaled [5] | Rat CLhep [5] | IC50 (3A4) |
| --- | --- | --- | --- | --- | --- | --- | --- | --- | --- | --- | --- | --- | --- | --- |
| CCOCCOc1nccc2cc(Nc3n[nH]c4cccnc34)ccc12 [Compound 69] | 0.005 | 1.23 | 0.27 | 9.9 ± 2.7 µM (≈ 3.46 µg/mL) | 0.017 | 0.023 |  |  |  |  |  |  |  |  |
| c1cnc2c(Nc3ccc4c(O[C@@H]5CCCOC5)nccc4c3)n[nH]c2c1 [Compound 62] | 0.004 | 3.38 | 0.36 | 10.3 ± 1.1 µM (≈ 3.72 µg/mL) | 0.017 | 0.038 | 6.32 µM | 3.96 µM | 27.8 µM | 58.3 mL/min/kg | 15.4 mL/min/kg | 461 mL/min/kg | 60.8 mL/min/kg | 4.76 µM |
| c1cc2cc(Nc3n[nH]c4nccnc34)ccc2c(OCC2CCOCC2)n1 [Compound 82] | 0.004 | 0.47 | 0.09 | 0.5 ± 0.2 µM (≈ 0.188 µg/mL) | 0.02 | 0.02 |  |  |  | 67.6 mL/min/kg | 15.4 mL/min/kg | 154 mL/min/kg | 48.1 mL/min/kg |  |
| c1cnc2[nH]nc(Nc3ccc4c(O[C@H]5CCOC5)nccc4c3)c2c1 [Compound 66] | 0.006 | 0.87 | 0.11 |  | 0.019 | 0.047 | > 30 µM | > 30 µM | > 30 µM | 37.9 mL/min/kg | 13.5 mL/min/kg | 210 mL/min/kg | 52.5 mL/min/kg | > 30 µM |
| COCCOc1nccc2cc(Nc3n[nH]c4ncccc34)ccc12 [Compound 74] | 0.007 | 0.59 | 0.1 | 0.8 ± 0.3 µM (≈ 0.268 µg/mL) | 0.038 | 0.041 | > 30 µM | > 30 µM | > 30 µM | 32.3 mL/min/kg | 12.7 mL/min/kg | 252 mL/min/kg | 54.8 mL/min/kg | > 30 µM |
| COCCOc1nccc2cc(Nc3n[nH]c4ncc(F)cc34)ccc12 [Compound 96] |  |  |  | 0.3 ± 0.2 µM (≈ 0.106 µg/mL) |  |  |  |  |  | 37 mL/min/kg | 13.4 mL/min/kg | 327 mL/min/kg | 57.7 mL/min/kg |  |
| c1cnc2[nH]nc(Nc3ccc4c(OCCN5CCOCC5)nccc4c3)c2c1 [Compound 94] |  |  |  | 15.2 ± 1.5 µM (≈ 5.93 µg/mL) |  |  |  |  |  | 87.6 mL/min/kg | 16.9 mL/min/kg | 923 mL/min/kg | 65.1 mL/min/kg |  |
| COCCOc1nccc2cc(Nc3n[nH]c4cc(F)cnc34)ccc12 [Compound 97] |  |  |  | 1 ± 0.1 µM (≈ 0.353 µg/mL) |  |  |  |  |  | 96.8 mL/min/kg | 17.3 mL/min/kg | 161 mL/min/kg | 48.8 mL/min/kg |  |
| COCCOc1nccc2cc(Nc3n[nH]c4nccnc34)ccc12 [Compound 81] | 0.015 | 0.4 | 0.13 | 0.9 ± 0.2 µM (≈ 0.303 µg/mL) | 0.032 | 0.048 | 0.79 µM | > 30 µM | > 30 µM | 38.5 mL/min/kg | 13.6 mL/min/kg | 74.4 mL/min/kg | 36.1 mL/min/kg | > 30 µM |
| c1cnc2[nH]nc(Nc3ccc4c(OCC5COCCO5)nccc4c3)c2c1 (stereo not drawn) [Compound 80] | 0.007 | 0.46 | 0.09 | 1.4 ± 0.1 µM (≈ 0.528 µg/mL) | 0.033 | 0.037 | > 30 µM | 26.9 µM | > 30 µM | 22.4 mL/min/kg | 10.8 mL/min/kg | 376 mL/min/kg | 59.0 mL/min/kg | > 30 µM |
| c1cnc2c(Nc3ccc4c(OCC5CCOC5)nccc4c3)n[nH]c2c1 (stereo not drawn) [Compound 71] | 0.003 | 0.8 | 0.1 |  | 0.015 | 0.024 | 8.48 µM | 4.59 µM | 19.7 µM | 41.1 mL/min/kg | 13.9 mL/min/kg | 151 mL/min/kg | 47.8 mL/min/kg | 15.4 µM |
| c1cnc2c(Nc3ccc4c(OCC5CCCOC5)nccc4c3)n[nH]c2c1 (stereo not drawn) [Compound 72] | 0.002 | 0.52 | 0.13 |  | 0.009 | 0.008 | 12.9 µM | 3.15 µM | 24.6 µM | 55.7 mL/min/kg | 15.2 mL/min/kg | 273 mL/min/kg | 55.7 mL/min/kg | 22.7 µM |
| c1cnc2[nH]nc(Nc3ccc4c(OCC5CCOC5)nccc4c3)c2c1 (stereo not drawn) [Compound 79] | 0.002 | 1.5 | 0.16 | < 0.4 µM | 0.018 | 0.019 |  |  |  |  |  |  |  |  |
| c1cnc2c(Nc3ccc4c(O[C@@H]5CCOC5)nccc4c3)n[nH]c2c1 [Compound 63] | 0.005 | 1.27 | 0.18 |  | 0.018 | 0.036 | 3.96 µM | 13.3 µM | > 30 µM | 57.8 mL/min/kg | 15.4 mL/min/kg | 181 mL/min/kg | 50.5 mL/min/kg | 22.3 µM |
| COCCOc1nccc2cc(Nc3n[nH]c4ccccc34)ccc12 [Compound 98] |  |  |  | 1.6 ± 0.2 µM (≈ 0.535 µg/mL) |  |  |  |  |  | 30 mL/min/kg | 12.4 mL/min/kg | 216 mL/min/kg | 52.9 mL/min/kg |  |
| C[C@H]1OCC[C@H]1Oc1nccc2cc(Nc3n[nH]c4ncccc34)ccc12 [Compound 92] |  |  |  | 0.9 ± 0.2 µM (≈ 0.325 µg/mL) |  |  |  |  |  | 129 mL/min/kg | 18.1 mL/min/kg | 518 mL/min/kg | 61.7 mL/min/kg |  |
| c1cnc2c(Nc3ccc4c(OCCN5CCOCC5)nccc4c3)n[nH]c2c1 [Compound 93] |  |  |  | 20.5 ± 2.1 µM (≈ 8 µg/mL) |  |  |  |  |  | 136 mL/min/kg | 18.2 mL/min/kg | 718 mL/min/kg | 63.8 mL/min/kg |  |
| Fc1cnc2[nH]nc(Nc3ccc4c(OC5CCOCC5)nccc4c3)c2c1 [Compound 99] |  |  |  | 0.7 ± 0.2 µM (≈ 0.266 µg/mL) |  |  |  |  |  | 36.8 mL/min/kg | 13.4 mL/min/kg | 227 mL/min/kg | 53.5 mL/min/kg |  |
